Test results reported in patent publication EP0726263A2, “Herbicidal (1,3,4)oxadiazoles and thiadiazoles” (American Cyanamid Company, priority 1995, dated 1996).

Columns and labels:
Format in all cases: in vivo
Ambrosia artemisifolia [1] = assay: Herbicidal activity, preemergence test; conditions: pre; sprayed onto soil, 800 g of active material per hectare; evaluated 3 weeks after treatment
Description: (§1) To evaluate their herbicidal activity, compounds according to the invention are tested using a representative range of plants: TRZAW Triticum aestivum HORVW Hordeum vulgare ZEAMX Zea mays GOSHI Gossypium hirsutum HELAN Helianthus annuus GLYMA Glycine max ALOMY Alopecurus myosuroides SETVI Setaria viridis ECHCG Echinochloa crus-galli GALAP Galium aparine STEME Stellaria media VERPE Veronica persica VIOAR Viola arvensis IPOHE Ipomoea hederacea LAMPU Lamium purpureum PAPRH Papaver rhoeas MATIN Matricaria inodora AMARE Amaranthus retroflexus ABUTH Abutilon theophrasti AMBEL Ambrosia artemisifolia CHEAL Chenopodium album
(§2) The tests fall into two categories, preemergence and postemergence. The preemergence tests involve spraying a liquid formulation of the compound onto the soil in which the seeds have recently been sown. The postemergence tests involve spraying a liquid formulation of the compound onto seedling plants.
(§3) The soil used in the tests is a prepared horticultural loam.
(§4) The formulations used in the tests are prepared from solutions of the test compounds in acetone containing 0.4% by weight of an alkylphenol/ethylene oxide condensate available under the trade mark TRITON X-155. These acetone solutions are diluted with water and the resulting formulations applied at dosage levels corresponding to 800 g of active material per hectare in a volume equivalent to 900 litres per hectare.
(§5) In the preemergence tests untreated sown soil and in the postemergence tests untreated soil bearing seedling plants are used as controls.
(§6) Results of herbicide evaluation are expressed on a rating scale (0-9). The scale is based upon a visual observation of plant stand, vigor, malformation, size, chlorosis, and general plant appearance as compared to a control. Preemergence and postemergence treatments are evaluated at 3 and 2 weeks after treatment, respectively.

Setaria viridis [2] = assay: Herbicidal activity, preemergence test; conditions: pre; sprayed onto soil, 800 g of active material per hectare; evaluated 3 weeks after treatment
Description: as §1, §2, §3, §4, §5, §6

Gossypium hirsutum [3] = assay: Herbicidal activity, preemergence test; conditions: pre; sprayed onto soil, 800 g of active material per hectare; evaluated 3 weeks after treatment
Description: as §1, §2, §3, §4, §5, §6

Zea mays [4] = assay: Herbicidal activity, preemergence test; conditions: pre; sprayed onto soil, 800 g of active material per hectare; evaluated 3 weeks after treatment
Description: as §1, §2, §3, §4, §5, §6

Amaranthus retroflexus [5] = assay: Herbicidal activity, preemergence test; conditions: pre; sprayed onto soil, 800 g of active material per hectare; evaluated 3 weeks after treatment
Description: as §1, §2, §3, §4, §5, §6

Alopecurus myosuroides [6] = assay: Herbicidal activity, preemergence test; conditions: pre; sprayed onto soil, 800 g of active material per hectare; evaluated 3 weeks after treatment
Description: as §1, §2, §3, §4, §5, §6

Ipomoea hederacea [7] = assay: Herbicidal activity, preemergence test; conditions: pre; sprayed onto soil, 800 g of active material per hectare; evaluated 3 weeks after treatment
Description: as §1, §2, §3, §4, §5, §6

Papaver rhoeas [8] = assay: Herbicidal activity, preemergence test; conditions: pre; sprayed onto soil, 800 g of active material per hectare; evaluated 3 weeks after treatment
Description: as §1, §2, §3, §4, §5, §6

Hordeum vulgare [9] = assay: Herbicidal activity, preemergence test; conditions: pre; sprayed onto soil, 800 g of active material per hectare; evaluated 3 weeks after treatment
Description: as §1, §2, §3, §4, §5, §6

Matricaria inodora [10] = assay: Herbicidal activity, preemergence test; conditions: pre; sprayed onto soil, 800 g of active material per hectare; evaluated 3 weeks after treatment
Description: as §1, §2, §3, §4, §5, §6

Abutilon theophrasti [11] = assay: Herbicidal activity, preemergence test; conditions: pre; sprayed onto soil, 800 g of active material per hectare; evaluated 3 weeks after treatment
Description: as §1, §2, §3, §4, §5, §6

Galium aparine [12] = assay: Herbicidal activity, preemergence test; conditions: pre; sprayed onto soil, 800 g of active material per hectare; evaluated 3 weeks after treatment
Description: as §1, §2, §3, §4, §5, §6

Veronica persica [13] = assay: Herbicidal activity, preemergence test; conditions: pre; sprayed onto soil, 800 g of active material per hectare; evaluated 3 weeks after treatment
Description: as §1, §2, §3, §4, §5, §6

Lamium purpureum [14] = assay: Herbicidal activity, preemergence test; conditions: pre; sprayed onto soil, 800 g of active material per hectare; evaluated 3 weeks after treatment
Description: as §1, §2, §3, §4, §5, §6

Triticum aestivum [15] = assay: Herbicidal activity, preemergence test; conditions: pre; sprayed onto soil, 800 g of active material per hectare; evaluated 3 weeks after treatment
Description: as §1, §2, §3, §4, §5, §6

Glycine max [16] = assay: Herbicidal activity, preemergence test; conditions: pre; sprayed onto soil, 800 g of active material per hectare; evaluated 3 weeks after treatment
Description: as §1, §2, §3, §4, §5, §6

Stellaria media [17] = assay: Herbicidal activity, preemergence test; conditions: pre; sprayed onto soil, 800 g of active material per hectare; evaluated 3 weeks after treatment
Description: as §1, §2, §3, §4, §5, §6

Chenopodium album [18] = assay: Herbicidal activity, preemergence test; conditions: pre; sprayed onto soil, 800 g of active material per hectare; evaluated 3 weeks after treatment
Description: as §1, §2, §3, §4, §5, §6

Ambrosia artemisifolia [19] = assay: Herbicidal activity, postemergence test; conditions: post; sprayed onto seedling plants, 800 g of active material per hectare; evaluated 2 weeks after treatment
Description: as §1, §2, §3, §4, §5, §6

Setaria viridis [20] = assay: Herbicidal activity, postemergence test; conditions: post; sprayed onto seedling plants, 800 g of active material per hectare; evaluated 2 weeks after treatment
Description: as §1, §2, §3, §4, §5, §6

Gossypium hirsutum [21] = assay: Herbicidal activity, postemergence test; conditions: post; sprayed onto seedling plants, 800 g of active material per hectare; evaluated 2 weeks after treatment
Description: as §1, §2, §3, §4, §5, §6

Zea mays [22] = assay: Herbicidal activity, postemergence test; conditions: post; sprayed onto seedling plants, 800 g of active material per hectare; evaluated 2 weeks after treatment
Description: as §1, §2, §3, §4, §5, §6

Amaranthus retroflexus [23] = assay: Herbicidal activity, postemergence test; conditions: post; sprayed onto seedling plants, 800 g of active material per hectare; evaluated 2 weeks after treatment
Description: as §1, §2, §3, §4, §5, §6

Alopecurus myosuroides [24] = assay: Herbicidal activity, postemergence test; conditions: post; sprayed onto seedling plants, 800 g of active material per hectare; evaluated 2 weeks after treatment
Description: as §1, §2, §3, §4, §5, §6

Ipomoea hederacea [25] = assay: Herbicidal activity, postemergence test; conditions: post; sprayed onto seedling plants, 800 g of active material per hectare; evaluated 2 weeks after treatment
Description: as §1, §2, §3, §4, §5, §6

Papaver rhoeas [26] = assay: Herbicidal activity, postemergence test; conditions: post; sprayed onto seedling plants, 800 g of active material per hectare; evaluated 2 weeks after treatment
Description: as §1, §2, §3, §4, §5, §6

Hordeum vulgare [27] = assay: Herbicidal activity, postemergence test; conditions: post; sprayed onto seedling plants, 800 g of active material per hectare; evaluated 2 weeks after treatment
Description: as §1, §2, §3, §4, §5, §6

Matricaria inodora [28] = assay: Herbicidal activity, postemergence test; conditions: post; sprayed onto seedling plants, 800 g of active material per hectare; evaluated 2 weeks after treatment
Description: as §1, §2, §3, §4, §5, §6

Abutilon theophrasti [29] = assay: Herbicidal activity, postemergence test; conditions: post; sprayed onto seedling plants, 800 g of active material per hectare; evaluated 2 weeks after treatment
Description: as §1, §2, §3, §4, §5, §6

Galium aparine [30] = assay: Herbicidal activity, postemergence test; conditions: post; sprayed onto seedling plants, 800 g of active material per hectare; evaluated 2 weeks after treatment
Description: as §1, §2, §3, §4, §5, §6

Veronica persica [31] = assay: Herbicidal activity, postemergence test; conditions: post; sprayed onto seedling plants, 800 g of active material per hectare; evaluated 2 weeks after treatment
Description: as §1, §2, §3, §4, §5, §6

Lamium purpureum [32] = assay: Herbicidal activity, postemergence test; conditions: post; sprayed onto seedling plants, 800 g of active material per hectare; evaluated 2 weeks after treatment
Description: as §1, §2, §3, §4, §5, §6

Triticum aestivum [33] = assay: Herbicidal activity, postemergence test; conditions: post; sprayed onto seedling plants, 800 g of active material per hectare; evaluated 2 weeks after treatment
Description: as §1, §2, §3, §4, §5, §6

Glycine max [34] = assay: Herbicidal activity, postemergence test; conditions: post; sprayed onto seedling plants, 800 g of active material per hectare; evaluated 2 weeks after treatment
Description: as §1, §2, §3, §4, §5, §6

Stellaria media [35] = assay: Herbicidal activity, postemergence test; conditions: post; sprayed onto seedling plants, 800 g of active material per hectare; evaluated 2 weeks after treatment
Description: as §1, §2, §3, §4, §5, §6

Chenopodium album [36] = assay: Herbicidal activity, postemergence test; conditions: post; sprayed onto seedling plants, 800 g of active material per hectare; evaluated 2 weeks after treatment
Description: as §1, §2, §3, §4, §5, §6

C[C@H](NC(=O)c1nnc(C=Cc2ccccc2)o1)c1ccccc1 [Example 17]
6 (herbicidal effect): LAMPU control rating (0-9) (Lamium purpureum [32])
0 (no effect): AMBEL control rating (0-9) (Ambrosia artemisifolia [1]) | SETVI control rating (0-9) (Setaria viridis [2]) | ZEAMX control rating (0-9) (Zea mays [4]) | AMARE control rating (0-9) (Amaranthus retroflexus [5]) | ALOMY control rating (0-9) (Alopecurus myosuroides [6]) | IPOHE control rating (0-9) (Ipomoea hederacea [7]) | HORVW control rating (0-9) (Hordeum vulgare [9]) | MATIN control rating (0-9) (Matricaria inodora [10]) | ABUTH control rating (0-9) (Abutilon theophrasti [11]) | GALAP control rating (0-9) (Galium aparine [12]) | LAMPU control rating (0-9) (Lamium purpureum [14]) | TRZAW control rating (0-9) (Triticum aestivum [15]) | GLXMA control rating (0-9) (Glycine max [16]) | STEME control rating (0-9) (Stellaria media [17]) | CHEAL control rating (0-9) (Chenopodium album [18]) | AMBEL control rating (0-9) (Ambrosia artemisifolia [19]) | SETVI control rating (0-9) (Setaria viridis [20]) | ALOMY control rating (0-9) (Alopecurus myosuroides [24]) | HORVW control rating (0-9) (Hordeum vulgare [27]) | MATIN control rating (0-9) (Matricaria inodora [28]) | TRZAW control rating (0-9) (Triticum aestivum [33]) | GLXMA control rating (0-9) (Glycine max [34]) | STEME control rating (0-9) (Stellaria media [35])
3 (moderate effect): VERPE control rating (0-9) (Veronica persica [13]) | GOSHI control rating (0-9) (Gossypium hirsutum [21]) | VERPE control rating (0-9) (Veronica persica [31])
2 (slight effect): GALAP control rating (0-9) (Galium aparine [30])
9 (complete kill): GOSHI control rating (0-9) (Gossypium hirsutum [3])
5 (definite injury): PAPRH control rating (0-9) (Papaver rhoeas [8]) | PAPRH control rating (0-9) (Papaver rhoeas [26]) | CHEAL control rating (0-9) (Chenopodium album [36])
4 (injury): AMARE control rating (0-9) (Amaranthus retroflexus [23])
1 (trace effect): ZEAMX control rating (0-9) (Zea mays [22]) | IPOHE control rating (0-9) (Ipomoea hederacea [25]) | ABUTH control rating (0-9) (Abutilon theophrasti [29])
